From PubChem BioAssay (NCI)
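Step 1: Grow cells in 96-well plates. Step 2: Expose to compound for 48 hours at 5 concentrations. Step 3: Interpolate endpoints linearly; if unreached, use highest concentration. The concentration for 50% growth inhibition is given as GI50. TGI denotes the concentration required for complete inhibition of growth.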

Assays:
Assay in all cases: NCI-60 cell line screen, 48 h
NCI-H226 lung = test system: NCI-H226 lung
SF-295 CNS = test system: SF-295 CNS
HS 578T breast = test system: HS 578T breast
DU-145 prostate = test system: DU-145 prostate
UO-31 renal = test system: UO-31 renal
SF-268 CNS = test system: SF-268 CNS
ACHN renal = test system: ACHN renal
KM12 colon = test system: KM12 colon
SK-MEL-5 melanoma = test system: SK-MEL-5 melanoma
U251 CNS = test system: U251 CNS

Cn1c(=O)cc(NNc2ccc(Cl)c(Cl)c2)[nH]c1=O
TGI (NCI-H226 lung): 55.9 µM
TGI (SF-295 CNS): 43.2 µM
TGI (HS 578T breast): 56 µM
TGI (DU-145 prostate): > 100 µM
TGI (UO-31 renal): 24.4 µM
TGI (SF-268 CNS): 75.9 µM
TGI (ACHN renal): 19.9 µM
TGI (KM12 colon): 30.2 µM
TGI (SK-MEL-5 melanoma): 19.3 µM
TGI (U251 CNS): 24.8 µM

C=C(C)[C@H]1CC23C(=O)[C@@](C)(C[C@H]2C1(C)C)C(=O)C(C(=O)C(C)C)=C3O
TGI (NCI-H226 lung): 30.3 µM
TGI (SF-295 CNS): 36.7 µM
TGI (HS 578T breast): 58.1 µM
TGI (DU-145 prostate): > 100 µM
TGI (UO-31 renal): 39.2 µM
TGI (SF-268 CNS): 50.4 µM
TGI (ACHN renal): 30.4 µM
TGI (KM12 colon): 41.1 µM
TGI (SK-MEL-5 melanoma): 31.5 µM
TGI (U251 CNS): 39.7 µM

COc1ccc(-c2cc3cc(Cl)cc(Cl)c3oc2=O)cc1OC
TGI (NCI-H226 lung): > 100 µM
TGI (SF-295 CNS): > 100 µM
TGI (HS 578T breast): 76.1 µM
TGI (DU-145 prostate): > 100 µM
TGI (UO-31 renal): > 100 µM
TGI (SF-268 CNS): > 100 µM
TGI (ACHN renal): > 100 µM
TGI (KM12 colon): > 100 µM
TGI (SK-MEL-5 melanoma): > 100 µM
TGI (U251 CNS): > 100 µM

CCOC(=O)[C@@H](Cc1ccc(CCl)cc1)NC(C)=O
TGI (NCI-H226 lung): 98.5 µM
TGI (SF-295 CNS): > 100 µM
TGI (HS 578T breast): 60.8 µM
TGI (DU-145 prostate): > 100 µM
TGI (UO-31 renal): 36.4 µM
TGI (SF-268 CNS): 67 µM
TGI (ACHN renal): 43.5 µM
TGI (KM12 colon): 40.5 µM
TGI (SK-MEL-5 melanoma): 31.5 µM
TGI (U251 CNS): 40.5 µM

Clc1ccc(/C(=C/c2ccccc2)Cn2ccnc2)cc1
TGI (NCI-H226 lung): > 100 µM
TGI (SF-295 CNS): > 100 µM
TGI (HS 578T breast): > 100 µM
TGI (DU-145 prostate): > 100 µM
TGI (UO-31 renal): > 100 µM
TGI (SF-268 CNS): > 100 µM
TGI (ACHN renal): > 100 µM
TGI (KM12 colon): > 100 µM
TGI (SK-MEL-5 melanoma): 36.4 µM
TGI (U251 CNS): > 100 µM

C[As+](C)(c1ccc(Br)c([N+](=O)[O-])c1)c1ccc(Br)c([N+](=O)[O-])c1.O=[N+]([O-])O
TGI (NCI-H226 lung): > 100 µM
TGI (SF-295 CNS): > 100 µM
TGI (HS 578T breast): > 100 µM
TGI (DU-145 prostate): > 100 µM
TGI (UO-31 renal): > 100 µM
TGI (SF-268 CNS): > 100 µM
TGI (ACHN renal): > 100 µM
TGI (KM12 colon): > 100 µM
TGI (SK-MEL-5 melanoma): 22 µM
TGI (U251 CNS): > 100 µM

CC(C)=C/C(CC(O)(C(F)(F)F)C(F)(F)F)=N\O
TGI (NCI-H226 lung): > 100 µM
TGI (SF-295 CNS): > 100 µM
TGI (HS 578T breast): > 100 µM
TGI (DU-145 prostate): > 100 µM
TGI (UO-31 renal): > 100 µM
TGI (SF-268 CNS): > 100 µM
TGI (ACHN renal): > 100 µM
TGI (KM12 colon): > 100 µM
TGI (SK-MEL-5 melanoma): > 100 µM
TGI (U251 CNS): > 100 µM

C[C@H]1[C@H](C)CC[C@]2(C(=O)OC3OC(CO)C(O)C(O)C3O)CC[C@]3(C)C(=CC[C@@H]4[C@@]5(C)C[C@@H](O)[C@@H]6OC(=O)c7cc(O)c(O)c(O)c7-c7c(cc(O)c(O)c7O)C(=O)OC[C@@]6(CO)[C@@H]5CC[C@]43C)[C@H]12 (stereo not given in full)
TGI (NCI-H226 lung): > 100 µM
TGI (SF-295 CNS): > 100 µM
TGI (HS 578T breast): > 100 µM
TGI (DU-145 prostate): > 100 µM
TGI (UO-31 renal): > 100 µM
TGI (SF-268 CNS): > 100 µM
TGI (ACHN renal): > 100 µM
TGI (KM12 colon): > 100 µM
TGI (SK-MEL-5 melanoma): > 100 µM
TGI (U251 CNS): > 100 µM

CCN(CC)CCCCNc1c2ccc(Cl)cc2nc2ccc(OC)cc12
GI50 (NCI-H226 lung): 1.32 µM
TGI (NCI-H226 lung): 3.35 µM
GI50 (SF-295 CNS): 0.717 µM
TGI (SF-295 CNS): 2.47 µM
GI50 (HS 578T breast): 1.83 µM
TGI (HS 578T breast): 4.76 µM
GI50 (DU-145 prostate): 0.34 µM
TGI (DU-145 prostate): 1.62 µM
GI50 (UO-31 renal): 0.759 µM
TGI (UO-31 renal): 3.31 µM
GI50 (SF-268 CNS): 0.797 µM
TGI (SF-268 CNS): 3.33 µM
GI50 (ACHN renal): 0.371 µM
TGI (ACHN renal): 2.27 µM
GI50 (KM12 colon): 0.456 µM
TGI (KM12 colon): 2.61 µM
GI50 (SK-MEL-5 melanoma): 1.46 µM
TGI (SK-MEL-5 melanoma): 2.9 µM
GI50 (U251 CNS): 0.45 µM
TGI (U251 CNS): 2.16 µM

CC(=N/NC(=S)N(C)C)/C(=N\NC(=S)N(C)C)c1ccccc1
TGI (NCI-H226 lung): 3.13 µM
TGI (SF-295 CNS): 4.46 µM
TGI (HS 578T breast): 6.26 µM
TGI (DU-145 prostate): 10.6 µM
TGI (UO-31 renal): 6.21 µM
TGI (SF-268 CNS): 4.84 µM
TGI (ACHN renal): 3.26 µM
TGI (KM12 colon): 4.44 µM
TGI (SK-MEL-5 melanoma): 3.14 µM
TGI (U251 CNS): 7.96 µM

NC(=O)c1ccc[n+](C2=C([O-])c3ccccc3C(=O)/C2=N\S(=O)(=O)c2ccccc2)c1
TGI (NCI-H226 lung): 28.9 µM
TGI (SF-295 CNS): 31.5 µM
TGI (HS 578T breast): 47.3 µM
TGI (DU-145 prostate): 34 µM
TGI (UO-31 renal): 27.9 µM
TGI (SF-268 CNS): 31.3 µM
TGI (ACHN renal): 26.4 µM
TGI (KM12 colon): 26.7 µM
TGI (SK-MEL-5 melanoma): 21.3 µM
TGI (U251 CNS): 29 µM

NC(=O)NN=C1Cc2ccccc2C1
TGI (NCI-H226 lung): > 100 µM
TGI (SF-295 CNS): > 100 µM
TGI (HS 578T breast): > 100 µM
TGI (DU-145 prostate): > 100 µM
TGI (UO-31 renal): > 100 µM
TGI (SF-268 CNS): > 100 µM
TGI (ACHN renal): > 100 µM
TGI (KM12 colon): > 100 µM
TGI (SK-MEL-5 melanoma): > 100 µM
TGI (U251 CNS): > 100 µM

NC(=O)C1CCN(Cc2c(Cl)c(Cl)c(CN3CCC(C(N)=O)CC3)c(Cl)c2Cl)CC1
TGI (NCI-H226 lung): > 100 µM
TGI (SF-295 CNS): 75.3 µM
TGI (HS 578T breast): > 100 µM
TGI (DU-145 prostate): > 100 µM
TGI (UO-31 renal): > 100 µM
TGI (SF-268 CNS): > 100 µM
TGI (ACHN renal): > 100 µM
TGI (KM12 colon): > 100 µM
TGI (SK-MEL-5 melanoma): > 100 µM
TGI (U251 CNS): > 100 µM

Cc1cccc2c1CC(Cc1ccccc1C(=O)O)C2=O (stereo not given)
TGI (NCI-H226 lung): > 100 µM
TGI (SF-295 CNS): > 100 µM
TGI (HS 578T breast): > 100 µM
TGI (DU-145 prostate): > 100 µM
TGI (UO-31 renal): > 100 µM
TGI (SF-268 CNS): > 100 µM
TGI (ACHN renal): > 100 µM
TGI (KM12 colon): > 100 µM
TGI (SK-MEL-5 melanoma): > 100 µM
TGI (U251 CNS): > 100 µM

Cc1cc(S(=O)(=O)N=C2Nc3cccc4cccc(c34)N2)c(S)cc1Cl
TGI (NCI-H226 lung): > 100 µM
TGI (SF-295 CNS): > 100 µM
TGI (HS 578T breast): > 100 µM
TGI (DU-145 prostate): > 100 µM
TGI (UO-31 renal): > 100 µM
TGI (SF-268 CNS): > 100 µM
TGI (ACHN renal): > 100 µM
TGI (KM12 colon): > 100 µM
TGI (SK-MEL-5 melanoma): > 100 µM
TGI (U251 CNS): > 100 µM

CC(C)=CCC[C@@H](C)C1=C(Nc2ccccc2F)C(O)=C(C)C(=O)C1=O
TGI (NCI-H226 lung): 24 µM
TGI (SF-295 CNS): > 31.5 µM
TGI (HS 578T breast): 57.1 µM
TGI (DU-145 prostate): > 100 µM
TGI (UO-31 renal): 25.2 µM
TGI (SF-268 CNS): > 100 µM
TGI (ACHN renal): 14.3 µM
TGI (KM12 colon): 19.4 µM
TGI (SK-MEL-5 melanoma): 14.8 µM
TGI (U251 CNS): > 31.6 µM
